The source of these data is US9469652B2, “ERK inhibitors” (Eli Lilly and Company, priority 2014, dated 2016).

Experiment [1] has as its system human non-small cell lung cancer cells NCI-H2122 (KRAS_G12C). Put plainly: In vivo combination study, NCI-H2122 NSCLC xenograft model. More on the design: species or system female athymic nude mice. Particulars: single agent. Here is the method:
(§1) More specifically, the compound of Example 1 is tested in combination with either the pan-RAF inhibitor compound or the CDK4/6 inhibitor compound in HCT116, a KRAS mutant colorectal cancer xenograft model. Also, the compound of Example 1 is tested in combination with either the CDK4/6 inhibitor compound or DC101 in NCI-H441, A549, and NCI-H2122, KRAS mutant non-small cell lung cancer (NSCLC) xenograft models.
(§2) Combination efficacy is also tested in three KRAS mutant NSCLC xenograft models including A549 (KRAS_G12S) in SCID mice as well as NCI-H441 (KRAS_G12V) and NCI-H2122 (KRAS_G12C) in athymic nude mice. Expand human non-small cell lung cancer cells NCI-H441 (ATCC, #CRL-5807) and NCI-H2122 (ATCC, #CRL-5985) in culture, harvest and inject 5×10e^6 cells in 200 μL of 1:1 HBSS+matrigel solution subcutaneously on to the rear right flank of female athymic nude mice (20-22 gm, Harlan Laboratories). Expand human non-small cell lung cancer cells A549 (ATCC, #CC1-185) in culture, harvest and inject 5×10e^6 cells in 200 μL of 1:1 HBSS+matrigel solution subcutaneously on to the rear right flank of female CB-17 SCID mice (18-20 gm, Taconic Farms). For all cell lines, measure tumor growth and body weight twice per week beginning the seventh day after the implantation. When average tumor sizes reach 200-300 mm^3, randomize animals and group into groups of five to seven animals. Prepare test compound in an appropriate vehicle (see below) and administer by oral gavage (compound of Example 1 and the CDK4/6 inhibitor compound) or intraperitoneally (DC101) for 21 to 28 days. Tumor response is determined by tumor volume measurement performed twice a week during the course of treatment. Vehicle used in these studies is 1% HEC/0.25% Tween® 80/0.05% Antifoam. The compound of Example 1 is formulated in 1% HEC/0.25% Tween® 80/0.05% Antifoam and the CDK4/6 inhibitor compound is formulated in 1% HEC in 25 mM sodium phosphate buffer, pH 2. […] In the same NCI-H441 xenograft model, DC101 in phosphate buffer is also administered intraperitoneally twice per week (BIW) as a single agent or in combination with the compound of Example 1, 50 mpk, QD for 28 days.

Experiment [2] relates to human pancreatic cancer cells MIA PACA-2. Put plainly: Xenograft tumor model MIA PACA-2. Type of experiment: in vivo, female athymic nude mice. Particulars: oral gavage; for Delta T/C % or Regr %: negative = regression. Here is the method:
(§3) The purpose of this assay is to measure reduction in tumor volume in response to test compound administration. Expand human colorectal cancer cells HCT116 (ATCC, # CCL-247) in culture, harvest and inject 5×10e^6 cells in 200 μL of 1:1 HBSS+matrigel solution subcutaneously on to the rear right flank of female athymic nude mice (22-25 g, Harlan Laboratories). Expand human pancreatic cancer cells MIA PACA-2 (ATCC, # CRL-1420) or human non-small cell lung cancer cells CALU-6 (ATCC, #HTB-56) or human colorectal cancer cells COLO-205 (ATCC, #CCL-222) in culture, harvest and inject 5×10e^6 cells in 200 μL of 1:1 HBSS+matrigel solution subcutaneously on to the rear right flank of female athymic nude mice (22-25 g, Harlan Laboratories). Measure tumor growth and body weight twice per week beginning the seventh day after the implantation. When tumor sizes reach 200-400 mm^3, randomize animals and group into groups of eight to ten animals. Prepare test compound in an appropriate vehicle (vehicle: 1% HEC/0.25% Tween 80/0.05% Antifoam) and administer by oral gavage for 14 to 21 days. Tumor response is determined by tumor volume measurement performed twice a week during the course of treatment. Body weight is taken as a general measure of toxicity.
(§4) A compound within the scope of invention is tested in this assay run substantially as above.

In experiment [3] the test system is human non-small cell lung cancer cells A549 (KRAS_G12S). The experiment can be described thus: In vivo combination study, A549 NSCLC xenograft model. On the set-up: species or system female CB-17 SCID mice. Particulars: single agent. Here is the method:
as §1, §2

The test system of experiment [4] is human colorectal cancer cells COLO-205. The experiment can be described thus: Xenograft tumor model COLO-205. Type of experiment: in vivo, female athymic nude mice. Particulars: oral gavage; for Delta T/C % or Regr %: negative = regression. The method, then: as §3, §4
In experiment [5] the test system is human colorectal cancer cells HCT116. The experiment can be described thus: In vivo combination study, HCT116 KRAS mutant colorectal cancer xenograft model. Particulars: oral, 28 days, single agent. The method, then: as §1
The HCT116 combination efficacy study is done in athymic nude rats. Expand human colorectal cancer cells HCT116 (ATCC, #CCL-247) in culture, harvest and inject 5×10e^6 cells in 200 μL of 1:1 HBSS+matrigel solution subcutaneously on to the rear right flank of female NIH nude rats (120-145 gm, Taconic Farms). Measure tumor growth and body weight twice per week beginning the seventh day after the implantation. When average tumor sizes reach 200-300 mm^3, randomize animals and group into groups of five to seven animals. Prepare test compound in an appropriate vehicle (see below) and administer by oral gavage for 21 to 28 days. Tumor response is determined by tumor volume measurement performed twice a week during the course of treatment. Vehicle used in this study is 1% HEC (hydroxy ethyl cellulose)/0.25% Tween® 80/0.05% Antifoam. The compound of Example 1 and the pan-RAF inhibitor compound are formulated in 1% HEC/0.25% Tween® 80/0.05% Antifoam. The CDK4/6 inhibitor compound is formulated in 1% HEC in 25 mM Sodium phosphate buffer, pH 2.

With `Cn1nccc1Nc1nccc(-c2cc3c(s2)C(C)(C)N(CCN2CCOCC2)C3=O)n1` [Example 1, 6,6-Dimethyl-2-{2-[(1-methyl-1H-pyrazol-5-yl)amino]pyrimidin-4-yl}-5-[2-(morpholin-4-yl)ethyl]-5,6-dihydro-4H-thieno[2,3-c]pyrrol-4-one], the “Delta T/C %” value turned out to be 59% in experiment [1] (50 mg/kg QD, oral, 28 days); 9% in experiment [3] (50 mg/kg QD, oral, 28 days); 48% in experiment [5] (10 mg/kg QD); 36% in experiment [5] (20 mg/kg QD). Moreover, the tumor growth inhibition turned out to be 41% in experiment [1] (50 mpk) and 91% in experiment [3] (50 mpk). Besides, the TGI % in experiment [2] (12.5 mg/kg QD) stood at 68%; in experiment [2] (25 mg/kg QD), 98%; in experiment [2] (50 mg/kg QD) it was 122%; in experiment [2] (100 mg/kg QD), 166%; in experiment [4] (12.5 mg/kg QD) it was 119%; in experiment [4] (25 mg/kg QD) it was 132%. In addition, the results for the TGI % in experiment [4] (100 mg/kg QD), in experiment [5] (10 mg/kg QD) and in experiment [5] (20 mg/kg QD) were 176%, 52% and 64%, respectively. Moreover, the “Delta T/C % or Regr %” value in experiment [2] (12.5 mg/kg QD) was 32%; in experiment [2] (25 mg/kg QD) it was 2%; in experiment [2] (50 mg/kg QD) it was −22%; in experiment [2] (100 mg/kg QD), −66%; in experiment [4] (12.5 mg/kg QD) it was −19%; in experiment [4] (25 mg/kg QD) it was −32%. Also, in experiment [4] (100 mg/kg QD), the “Delta T/C % or Regr %” value is reported as −76%.
